According to patent publication US20140194480A1, “METHODS FOR THE CONTROL OF TERMITES AND ANTS” (SYNGENTA PARTICIPATIONS AG, priority 2011, published 2014):

Assays:
termites [1] = assay: Transfer test: termites exposed 6 h on treated sand, then combined with unexposed termites; total termite mortality; format: in vivo; settings: for % mortality: Table 3; for % mortality of the total termites: Table 4
Protocol: Washed sand is treated with the experimental compound in a volatile solvent, so as to deliver the desired concentration w/w in the solvent free sand. Once the solvent has evaporated, the sand is thoroughly mixed and made up with deionised water to 3% w/w moisture content. Ca. 5 g of the so treated sand is placed in the base of a 9 cm Petri dish. 20 worker termites are placed on the treated sand and placed in a dark room under similar temperature to their culture colony. After 6 hours the termites are assessed for mortality and carefully removed from the treated sand, before being placed in a similar Petri dish of untreated sand (3% moisture content). 20 further termites are taken from the same colony and placed in the Petri dish with the exposed termites, along with a section of filter paper ca. 2 cm^2. The lid of the Petri dish is replaced and sealed with laboratory film. The so constructed Petri dish arena are placed in a dark room with a similar temperature to the culture colony. Assessments of total termite mortality, symptomology and behaviour are made at daily intervals.

termites [2] = assay: Treated sand column test: termite mortality and distance tunnelled into treated sand; format: in vivo
Protocol: Washed sand was treated with the experimental compound diluted in acetone. The acetone was allowed to evaporate, and the sand thoroughly mixed. De-ionised water was added to the treated sand to give a final water content of 3%. The treated sand was then packed into a glass tube with an internal diameter of 13.2 mm, to produce a 4 cm column. This was held in place at one end with a section of 7% agar. Sections of filter paper were placed at both ends of the column. Approximately 25 mixed age termites were added to the end of the tube containing the agar. Both ends were then sealed with rubber bungs. Assessments were made 1, 2, 3, 7 and 21 days after infestation, measuring termite mortality and the distance tunnelled into the treated sand.

[3] = 2.5 ppm, 0 days after treatment
[4] = 2.5 ppm, 2 days after treatment
[5] = 2.5 ppm, 3 days after treatment
[6] = 2.5 ppm, 6 days after treatment
[7] = 2.5 ppm, 7 days after treatment
[8] = 2.5 ppm, 8 days after treatment
[9] = 2.5 ppm, 9 days after treatment
[10] = 2.5 ppm, 14 days after treatment
[11] = 1.25 ppm, 0 days after treatment
[12] = 1.25 ppm, 1 day after treatment
[13] = 1.25 ppm, 2 days after treatment
[14] = 1.25 ppm, 3 days after treatment
[15] = 1.25 ppm, 6 days after treatment
[16] = 1.25 ppm, 7 days after treatment
[17] = 1.25 ppm, 8 days after treatment
[18] = 1.25 ppm, 9 days after treatment
[19] = 1.25 ppm, 14 days after treatment

Structure (SMILES): Cc1cc(C2=NOC(c3cc(Cl)cc(Cl)c3)(C(F)(F)F)C2)ccc1C(=O)NC1(C)CSC1 (racemic) [Compound 1]
- % mortality (termites [1]; 10 ppm, 2 days after application): 0%
- % mortality (termites [1]; 10 ppm, 3 days after application): 14%
- % mortality (termites [1]; 10 ppm, 6 days after application): 30%
- % mortality (termites [1]; 10 ppm, 7 days after application): 38%
- % mortality (termites [1]; 10 ppm, 8 days after application): 43%
- % mortality (termites [1]; 10 ppm, 9 days after application): 50%
- % mortality (termites [1]; 10 ppm, 10 days after application): 67%
- % mortality (termites [1]; 10 ppm, 13 days after application): 78%
- % mortality (termites [1]; 10 ppm, 14 days after application): 83%
- % mortality (termites [1]; 10 ppm, 15 days after application): 87%
- % mortality (termites [1]; 10 ppm, 16 days after application): 88%
- % mortality (termites [1]; 10 ppm, 17 days after application): 92%
- % mortality of the total termites (termites [1]; [3]): 0%
- % mortality of the total termites (termites [1]; 2.5 ppm, 1 day after treatment): 0%
- % mortality of the total termites (termites [1]; [4]): 0.5%
- % mortality of the total termites (termites [1]; [5]): 0.5%
- % mortality of the total termites (termites [1]; [6]): 0.5%
- % mortality of the total termites (termites [1]; [7]): 1%
- % mortality of the total termites (termites [1]; [8]): 1%
- % mortality of the total termites (termites [1]; [9]): 1.5%
- % mortality of the total termites (termites [1]; [10]): 1.5%
- % mortality of the total termites (termites [1]; 5 ppm, 0 days after treatment): 0%
- % mortality of the total termites (termites [1]; 5 ppm, 1 day after treatment): 0.5%
- % mortality of the total termites (termites [1]; 5 ppm, 2 days after treatment): 1.5%
- % mortality of the total termites (termites [1]; 5 ppm, 3 days after treatment): 1.5%
- % mortality of the total termites (termites [1]; 5 ppm, 6 days after treatment): 1.5%
- % mortality of the total termites (termites [1]; 5 ppm, 7 days after treatment): 6%
- % mortality of the total termites (termites [1]; 5 ppm, 8 days after treatment): 6%
- % mortality of the total termites (termites [1]; 5 ppm, 9 days after treatment): 7%
- % mortality of the total termites (termites [1]; 5 ppm, 14 days after treatment): 7.5%
- % mortality of the total termites (termites [1]; 10 ppm, 0 days after treatment): 0%
- % mortality of the total termites (termites [1]; 10 ppm, 1 day after treatment): 19.5%
- % mortality of the total termites (termites [1]; 10 ppm, 2 days after treatment): 23.5%
- % mortality of the total termites (termites [1]; 10 ppm, 3 days after treatment): 27.5%
- % mortality of the total termites (termites [1]; 10 ppm, 6 days after treatment): 32.5%
- % mortality of the total termites (termites [1]; 10 ppm, 7 days after treatment): 33.5%
- % mortality of the total termites (termites [1]; 10 ppm, 8 days after treatment): 35%
- % mortality of the total termites (termites [1]; 10 ppm, 9 days after treatment): 35.5%
- % mortality of the total termites (termites [1]; 10 ppm, 14 days after treatment): 37.5%

Structure (SMILES): Cc1cc(C2=NCC(c3cc(Cl)cc(Cl)c3)(C(F)(F)F)C2)ccc1C(=O)NC1(C)CSC1 (racemic) [Compound 1b]
- % mortality of the total termites (termites [1]; [11]): 0%
- % mortality of the total termites (termites [1]; [12]): 1.5%
- % mortality of the total termites (termites [1]; [13]): 3.5%
- % mortality of the total termites (termites [1]; [14]): 5.5%
- % mortality of the total termites (termites [1]; [15]): 6%
- % mortality of the total termites (termites [1]; [16]): 6%
- % mortality of the total termites (termites [1]; [17]): 6%
- % mortality of the total termites (termites [1]; [18]): 6.5%
- % mortality of the total termites (termites [1]; [19]): 6.5%
- % mortality of the total termites (termites [1]; [3]): 0%
- % mortality of the total termites (termites [1]; 2.5 ppm, 1 day after treatment): 10%
- % mortality of the total termites (termites [1]; [4]): 19%
- % mortality of the total termites (termites [1]; [5]): 22.5%
- % mortality of the total termites (termites [1]; [6]): 27%
- % mortality of the total termites (termites [1]; [7]): 36%
- % mortality of the total termites (termites [1]; [8]): 36.5%
- % mortality of the total termites (termites [1]; [9]): 37%
- % mortality of the total termites (termites [1]; [10]): 38%
- % mortality of the total termites (termites [1]; 5 ppm, 0 days after treatment): 0%
- % mortality of the total termites (termites [1]; 5 ppm, 1 day after treatment): 15%
- % mortality of the total termites (termites [1]; 5 ppm, 2 days after treatment): 33.5%
- % mortality of the total termites (termites [1]; 5 ppm, 3 days after treatment): 40.5%
- % mortality of the total termites (termites [1]; 5 ppm, 6 days after treatment): 52.5%
- % mortality of the total termites (termites [1]; 5 ppm, 7 days after treatment): 59.5%
- % mortality of the total termites (termites [1]; 5 ppm, 8 days after treatment): 60%
- % mortality of the total termites (termites [1]; 5 ppm, 9 days after treatment): 61.5%
- % mortality of the total termites (termites [1]; 5 ppm, 14 days after treatment): 63.5%

Structure (SMILES): Cc1cc(C2=NOC(c3cc(Cl)cc(Cl)c3)(C(F)(F)F)C2)ccc1C(=O)NC1CSC1 (racemic) [Compound 5]
- % mortality of the total termites (termites [1]; [11]): 0%
- % mortality of the total termites (termites [1]; [12]): 3%
- % mortality of the total termites (termites [1]; [13]): 12%
- % mortality of the total termites (termites [1]; [14]): 12%
- % mortality of the total termites (termites [1]; [15]): 20%
- % mortality of the total termites (termites [1]; [16]): 24%
- % mortality of the total termites (termites [1]; [17]): 25%
- % mortality of the total termites (termites [1]; [18]): 26.5%
- % mortality of the total termites (termites [1]; [19]): 30%
- % mortality of the total termites (termites [1]; [3]): 0%
- % mortality of the total termites (termites [1]; 2.5 ppm, 1 day after treatment): 15%
- % mortality of the total termites (termites [1]; [4]): 31%
- % mortality of the total termites (termites [1]; [5]): 32%
- % mortality of the total termites (termites [1]; [6]): 42%
- % mortality of the total termites (termites [1]; [7]): 46.5%
- % mortality of the total termites (termites [1]; [8]): 46.5%
- % mortality of the total termites (termites [1]; [9]): 49.5%
- % mortality of the total termites (termites [1]; [10]): 56%
- % mortality of the total termites (termites [1]; 5 ppm, 0 days after treatment): 0%
- % mortality of the total termites (termites [1]; 5 ppm, 1 day after treatment): 20.5%
- % mortality of the total termites (termites [1]; 5 ppm, 2 days after treatment): 42%
- % mortality of the total termites (termites [1]; 5 ppm, 3 days after treatment): 44%
- % mortality of the total termites (termites [1]; 5 ppm, 6 days after treatment): 52.5%
- % mortality of the total termites (termites [1]; 5 ppm, 7 days after treatment): 54.5%
- % mortality of the total termites (termites [1]; 5 ppm, 8 days after treatment): 56.5%
- % mortality of the total termites (termites [1]; 5 ppm, 9 days after treatment): 56.5%
- % mortality of the total termites (termites [1]; 5 ppm, 14 days after treatment): 65.5%

Structure (SMILES): N#Cc1nn(-c2c(Cl)cc(C(F)(F)F)cc2Cl)c(N)c1[S+]([O-])C(F)(F)F (stereo not drawn) [Fipronil]
- Mortality/average % (termites [2]; Table 1, 0.01 ppm in sand, 1 DAA): 7%
- Mortality/average % (termites [2]; Table 1, 0.01 ppm in sand, 2 DAA): 7%
- Mortality/average % (termites [2]; Table 1, 0.01 ppm in sand, 3 DAA): 7%
- Mortality/average % (termites [2]; Table 1, 0.01 ppm in sand, 7 DAA): 7%
- Mortality/average % (termites [2]; Table 1, 0.01 ppm in sand, 21 DAA): 52%
- Mortality/average % (termites [2]; Table 1, 0.1 ppm in sand, 1 DAA): 0%
- Mortality/average % (termites [2]; Table 1, 0.1 ppm in sand, 2 DAA): 28%
- Mortality/average % (termites [2]; Table 1, 0.1 ppm in sand, 3 DAA): 33%
- Mortality/average % (termites [2]; Table 1, 0.1 ppm in sand, 7 DAA): 77%
- Mortality/average % (termites [2]; Table 1, 0.1 ppm in sand, 21 DAA): 100%
- Mortality/average % (termites [2]; Table 2, 0.01 ppm in sand, 1 DAA): 27%
- Mortality/average % (termites [2]; Table 2, 0.01 ppm in sand, 2 DAA): 40%
- Mortality/average % (termites [2]; Table 2, 0.01 ppm in sand, 3 DAA): 40%
- Mortality/average % (termites [2]; Table 2, 0.01 ppm in sand, 7 DAA): 40%
- Mortality/average % (termites [2]; Table 2, 0.01 ppm in sand, 21 DAA): 40%
- Mortality/average % (termites [2]; Table 2, 0.1 ppm in sand, 1 DAA): 27%
- Mortality/average % (termites [2]; Table 2, 0.1 ppm in sand, 2 DAA): 30%
- Mortality/average % (termites [2]; Table 2, 0.1 ppm in sand, 3 DAA): 40%
- Mortality/average % (termites [2]; Table 2, 0.1 ppm in sand, 7 DAA): 40%
- Mortality/average % (termites [2]; Table 2, 0.1 ppm in sand, 21 DAA): 40%
- repellency (in words) (termites [2]; fipronil rates tested (0.1 and 0.01 ppm)): not repellent
